{
  "source": "paper PMC8829872",
  "about": "(Cancer chemotherapy and pharmacology, 2022)",
  "assay": "Extensive tissue distribution study in CT26 tumor-bearing mice",
  "type": "in vivo, Balb/c mice",
  "conditions": "for Kp: oral, 75 mg/kg",
  "description": "Mice were injected subcutaneously on the right flank with 1x10^6 CT26 cells, a murine colorectal carcinoma cell line from BALB/c mice,obtained from ATCC (Manassas, VA). Cells were cultured in RPMI-1640 medium with L-glutamine (BioWhittaker Inc., Walkersville, MD), containing 10% heat-inactivated fetal bovine serum and 100 units of penicillin/mL and 100 μg/mL of streptomycin (Biofluids, BioSource, Rockville, MD) in an incubator with 95% air, 5% CO2, and 95% humidity at 37 °C. Cells were verified and checked for mycoplasm by IDEXX BioAnalytics (Westbrook, ME). Implantation and tumor growth were monitored twice weekly with a digital caliper. When tumors were approximately 200 mm^3, mice were stratified into time groups (N=3) primarily using body weight and secondarily using tumor size. Mice were administered 75 mg/kg PO through oral gavage. […] Bone marrow was obtained by flushing both femurs from each mouse with PBS, followed by centrifugation at 12,000 x g and removal of the supernatant. Protein analysis of the resuspended pellet was conducted using the Bio-Rad protein assay following the manufacturer’s instructions with bovine serum albumin as the standard. Blood was processed to obtain plasma and urine and feces were collected as described above.\nFor tissue and tumor analysis, samples were homogenized with 3 parts PBS (v/g) and further diluted with control plasma and concentrations determined from calibration curves prepared in control plasma.",
  "key": {"[1]": {"conditions": "Balb/c, mouse, 75 mg/kg PO-ext, plasma"}},
  "note": "Read-outs that look alike come from different tables or passages of the source.",
  "data": [
    {"molecule": "C[C@@H]1COCCN1c1cc(C2([S@](C)(=N)=O)CC2)nc(-c2cc[nH]c3nccc2-3)n1", "note": "[AZD6738]", "values": [
      {"measurement": "Cl", "setting": "75 mg/kg PO-ext", "result": 37.3, "unit": "mL/min/kg"},
      {"measurement": "Vd", "setting": "75 mg/kg PO-ext", "result": 5.66, "unit": "L/kg"},
      {"measurement": "0-24h urine", "setting": "75 mg/kg PO-ext, unaltered drug", "result": 3.19, "unit": "% dose"},
      {"measurement": "0-24h feces", "setting": "75 mg/kg PO-ext, unchanged drug", "result": 8.58, "unit": "% dose"},
      {"measurement": "AUC0-∞", "setting": "75 mg/kg PO, Plasma", "result": "2,371 (185) μg/mL•min"},
      {"measurement": "Cmax", "setting": "75 mg/kg PO, Plasma", "result": "14.1 (1.7) μg/mL"},
      {"measurement": "Tmax", "setting": "75 mg/kg PO, Plasma", "result": 15, "unit": "min"},
      {"measurement": "AUC(0-t)", "setting": "75 mg/kg PO, Plasma, 0-1440 min", "result": "2,371 (185) μg/mL•min"},
      {"measurement": "Kp", "setting": "Balb/c, mouse, bone marrow / plasma, 75 mg/kg PO, Bone Marrow to corresponding plasma AUC (0-360), read-out: Partition Coefficient", "result": 4.6},
      {"measurement": "Kp", "setting": "Balb/c, mouse, brain, 75 mg/kg PO, Brain to corresponding plasma AUC (0-960), read-out: Partition Coefficient", "result": "~0.05"},
      {"measurement": "Kp", "setting": "Balb/c, mouse, draining lymph node / plasma, 75 mg/kg PO, Draining Lymph Node to plasma AUC, read-out: Partition Coefficient", "result": 0.792},
      {"measurement": "Kp", "setting": "Balb/c, mouse, esophagus / plasma, 75 mg/kg PO, Esophagus to plasma AUC, read-out: Partition Coefficient", "result": 3.27},
      {"measurement": "Kp", "setting": "Balb/c, mouse, fat, 75 mg/kg PO, Fat to plasma AUC, read-out: Partition Coefficient", "result": 0.412},
      {"measurement": "Kp", "setting": "Balb/c, mouse, kidney / plasma, 75 mg/kg PO, Kidneys to plasma AUC, read-out: Partition Coefficient", "result": 2.77},
      {"measurement": "AUC(0-inf)", "setting": "Balb/c, mouse, kidney, 75 mg/kg PO, Kidneys", "result": 109000, "unit": "ng·h/mL"},
      {"measurement": "AUC(0-t)", "setting": "Balb/c, mouse, kidney, 75 mg/kg PO, Kidneys, 0-1440 min, read-out: AUC0-t (converted)", "result": 109000, "unit": "ng·h/mL"},
      {"measurement": "Cmax", "setting": "Balb/c, mouse, kidney, 75 mg/kg PO, Kidneys, read-out: Cmax", "result": 39200, "unit": "ng/mL"},
      {"measurement": "Tmax", "setting": "Balb/c, mouse, kidney, 75 mg/kg PO, Kidneys, read-out: Tmax (converted)", "result": 15, "unit": "min"},
      {"measurement": "Kp", "setting": "Balb/c, mouse, liver / plasma, 75 mg/kg PO, Liver to plasma AUC, read-out: Partition Coefficient", "result": 7.42},
      {"measurement": "AUC(0-inf)", "setting": "Balb/c, mouse, lung, 75 mg/kg PO, Lungs", "result": 42100, "unit": "ng·h/mL"},
      {"measurement": "AUC(0-t)", "setting": "Balb/c, mouse, lung, 75 mg/kg PO, Lungs, 0-1440 min, read-out: AUC0-t (converted)", "result": 42100, "unit": "ng·h/mL"},
      {"measurement": "Cmax", "setting": "Balb/c, mouse, lung, 75 mg/kg PO, Lungs, read-out: Cmax", "result": 17400, "unit": "ng/mL"},
      {"measurement": "Tmax", "setting": "Balb/c, mouse, lung, 75 mg/kg PO, Lungs, read-out: Tmax (converted)", "result": 15, "unit": "min"},
      {"measurement": "Kp", "setting": "Balb/c, mouse, non-draining lymph node / plasma, 75 mg/kg PO, Non-draining Lymph Node to plasma AUC, read-out: Partition Coefficient", "result": 0.983},
      {"measurement": "Kp", "setting": "Balb/c, mouse, red blood cells (RBC) / plasma, 75 mg/kg PO, RBC to plasma AUC, read-out: Partition Coefficient", "result": 0.701},
      {"measurement": "AUC(0-inf)", "setting": "Balb/c, mouse, red blood cells (RBC), 75 mg/kg PO, RBC", "result": 27700, "unit": "ng·h/mL"},
      {"measurement": "AUC(0-t)", "setting": "Balb/c, mouse, red blood cells (RBC), 75 mg/kg PO, RBC, 0-1440 min, read-out: AUC0-t (converted)", "result": 27700, "unit": "ng·h/mL"},
      {"measurement": "Cmax", "setting": "Balb/c, mouse, red blood cells (RBC), 75 mg/kg PO, RBC, read-out: Cmax", "result": 13200, "unit": "ng/mL"},
      {"measurement": "Tmax", "setting": "Balb/c, mouse, red blood cells (RBC), 75 mg/kg PO, RBC, read-out: Tmax (converted)", "result": 15, "unit": "min"},
      {"measurement": "AUC(0-inf)", "setting": "Balb/c, mouse, skeletal muscle, 75 mg/kg PO, Muscle", "result": 41200, "unit": "ng·h/mL"},
      {"measurement": "AUC(0-t)", "setting": "Balb/c, mouse, skeletal muscle, 75 mg/kg PO, Muscle, 0-1440 min, read-out: AUC0-t (converted)", "result": 41200, "unit": "ng·h/mL"},
      {"measurement": "Cmax", "setting": "Balb/c, mouse, skeletal muscle, 75 mg/kg PO, Muscle, read-out: Cmax", "result": 12500, "unit": "ng/mL"},
      {"measurement": "Tmax", "setting": "Balb/c, mouse, skeletal muscle, 75 mg/kg PO, Muscle, read-out: Tmax (converted)", "result": 15, "unit": "min"},
      {"measurement": "Kp", "setting": "Balb/c, mouse, small intestine / plasma, 75 mg/kg PO, Small Intestine to plasma AUC, read-out: Partition Coefficient", "result": 8.39},
      {"measurement": "Kp", "setting": "Balb/c, mouse, spinal cord, 75 mg/kg PO, Spinal Cord to plasma AUC, read-out: Partition Coefficient", "result": "~0.05"},
      {"measurement": "Kp", "setting": "Balb/c, mouse, spleen / plasma, 75 mg/kg PO, Spleen to plasma AUC, read-out: Partition Coefficient", "result": 0.891},
      {"measurement": "Kp", "setting": "Balb/c, mouse, thymus / plasma, 75 mg/kg PO, Thymus to plasma AUC, read-out: Partition Coefficient", "result": 0.652},
      {"measurement": "Kp", "setting": "Balb/c, mouse, tumor / plasma, 75 mg/kg PO, Tumor to plasma AUC, read-out: Partition Coefficient", "result": 0.75},
      {"measurement": "Kp", "setting": "Balb/c, mouse, tumor, 75 mg/kg PO, CT26 tumor, read-out: Tumor exposure relative to plasma", "result": "~0.75"},
      {"measurement": "Cmax", "setting": "Balb/c, mouse, 75 mg/kg PO-ext (tissue distribution study), plasma, read-out: Cmax", "result": 14100, "unit": "ng/mL"},
      {"measurement": "AUC(0-inf)", "setting": "[1]", "result": 39500, "unit": "ng·h/mL"},
      {"measurement": "half-life", "setting": "[1]", "result": 105, "unit": "min"},
      {"measurement": "AUC(0-t)", "setting": "Balb/c, mouse, 75 mg/kg PO-ext, plasma, read-out: AUC0-360 (converted)", "result": 39500, "unit": "ng·h/mL"},
      {"measurement": "Tmax", "setting": "Balb/c, mouse, 75 mg/kg PO-ext, plasma, read-out: Tmax (converted)", "result": 15, "unit": "min"},
      {"measurement": "AUC(0-inf)", "setting": "Balb/c, mouse, 75 mg/kg PO, Bone Marrow", "result": 133000, "unit": "ng·h/mL"},
      {"measurement": "AUC(0-t)", "setting": "Balb/c, mouse, 75 mg/kg PO, Bone Marrow, 0-360 min, read-out: AUC0-t (converted)", "result": 133000, "unit": "ng·h/mL"},
      {"measurement": "Cmax", "setting": "Balb/c, mouse, 75 mg/kg PO, Bone Marrow, read-out: Cmax", "result": 65800, "unit": "ng/mL"},
      {"measurement": "Tmax", "setting": "Balb/c, mouse, 75 mg/kg PO, Bone Marrow, read-out: Tmax (converted)", "result": 30, "unit": "min"},
      {"measurement": "AUC(0-inf)", "setting": "Balb/c, mouse, 75 mg/kg PO, Brain", "result": 2100, "unit": "ng·h/mL"},
      {"measurement": "AUC(0-t)", "setting": "Balb/c, mouse, 75 mg/kg PO, Brain, 0-960 min, read-out: AUC0-t (converted)", "result": 2100, "unit": "ng·h/mL"},
      {"measurement": "Cmax", "setting": "Balb/c, mouse, 75 mg/kg PO, Brain, read-out: Cmax", "result": 854, "unit": "ng/mL"},
      {"measurement": "Tmax", "setting": "Balb/c, mouse, 75 mg/kg PO, Brain, read-out: Tmax (converted)", "result": 15, "unit": "min"},
      {"measurement": "AUC(0-inf)", "setting": "Balb/c, mouse, 75 mg/kg PO, CT26 Tumor", "result": 29600, "unit": "ng·h/mL"},
      {"measurement": "AUC(0-t)", "setting": "Balb/c, mouse, 75 mg/kg PO, CT26 Tumor, 0-1440 min, read-out: AUC0-t (converted)", "result": 29600, "unit": "ng·h/mL"},
      {"measurement": "Cmax", "setting": "Balb/c, mouse, 75 mg/kg PO, CT26 Tumor, read-out: Cmax", "result": 10100, "unit": "ng/mL"},
      {"measurement": "Tmax", "setting": "Balb/c, mouse, 75 mg/kg PO, CT26 Tumor, read-out: Tmax (converted)", "result": 30, "unit": "min"},
      {"measurement": "AUC(0-inf)", "setting": "Balb/c, mouse, 75 mg/kg PO, Draining Lymph Node", "result": 31300, "unit": "ng·h/mL"},
      {"measurement": "AUC(0-t)", "setting": "Balb/c, mouse, 75 mg/kg PO, Draining Lymph Node, 0-1440 min, read-out: AUC0-t (converted)", "result": 31200, "unit": "ng·h/mL"},
      {"measurement": "Cmax", "setting": "Balb/c, mouse, 75 mg/kg PO, Draining Lymph Node, read-out: Cmax", "result": 12100, "unit": "ng/mL"},
      {"measurement": "Tmax", "setting": "Balb/c, mouse, 75 mg/kg PO, Draining Lymph Node, read-out: Tmax (converted)", "result": 15, "unit": "min"},
      {"measurement": "AUC(0-inf)", "setting": "Balb/c, mouse, 75 mg/kg PO, Esophagus", "result": 129000, "unit": "ng·h/mL"},
      {"measurement": "AUC(0-t)", "setting": "Balb/c, mouse, 75 mg/kg PO, Esophagus, 0-1440 min, read-out: AUC0-t (converted)", "result": 129000, "unit": "ng·h/mL"},
      {"measurement": "Cmax", "setting": "Balb/c, mouse, 75 mg/kg PO, Esophagus, read-out: Cmax", "result": 115000, "unit": "ng/mL"},
      {"measurement": "Tmax", "setting": "Balb/c, mouse, 75 mg/kg PO, Esophagus, read-out: Tmax (converted)", "result": 5, "unit": "min"}
    ]}
  ]
}
